The results in this text go back to patent US6890933B1, “Kinesin inhibitors” (President and Fellows of Harvard College, priority 2000, dated 2005).

“Also recorded” adds a separate entry of the source. Read-outs that look alike come from different tables or passages of the source.

Test [1] addresses T1, human Eg5 (Homo sapiens, UniProt P52732).
T1 construct: human Eg5 (N-terminal 405 amino acids and 6-His tagged at C terminus); made in house; host or cells: E. coli BL21 pLysS (DE3), plasmid pRSETa
T1 sequence (P52732 1-405 limits assumed): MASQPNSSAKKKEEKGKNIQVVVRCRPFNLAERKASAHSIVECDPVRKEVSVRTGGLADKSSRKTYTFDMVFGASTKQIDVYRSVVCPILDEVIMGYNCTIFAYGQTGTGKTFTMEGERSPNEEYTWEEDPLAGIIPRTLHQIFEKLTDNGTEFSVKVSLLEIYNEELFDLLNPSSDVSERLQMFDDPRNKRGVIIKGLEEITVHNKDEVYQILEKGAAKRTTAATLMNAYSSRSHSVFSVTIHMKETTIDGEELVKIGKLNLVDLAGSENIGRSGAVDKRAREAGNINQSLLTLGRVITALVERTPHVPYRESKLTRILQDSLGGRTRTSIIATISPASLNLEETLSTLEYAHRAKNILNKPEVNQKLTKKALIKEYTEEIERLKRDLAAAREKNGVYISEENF
Kind of test: In vitro NADH enzyme coupled ATPase assay with purified recombinant human Eg5 (Eg5-405). Type of test: biochemical. The source says:
FIG. 7 depicts a description of the NADH enzyme coupled ATPase assay used to study the inhibition of the ability of purified human recombinant Eg5 to hydrolyze ATP in the presence and absence of 22C16 and monastrol.
(§1) In vitro NADH Enzyme Coupled A TPase: (variation on Methods Described in Crevel, Lockhart, and Cross. J. Mol. Biol. (1997) 273, 160-170.)
For a brief description as the ATPase assay used in the present example, see FIG. 7.
(§2) A solution containing the microtubule resuspension buffer was supplemented with 1 mM Mg-ATP, 100 uM nicotinamide adenine dinucleotide (NADH), 1 mM phosphoenol pyruvate, 5 ug/ml pyruvate kinase, 7.5 ug/ml lactate dehydrogenase, 0.7 uM resuspended microtubules, and 0.5% dimethylsulfoxide (DMSO).
Next, serial dilutions of the compound 22C16 were prepared in the supplemented microtubule resuspension buffer. Purified recombinant human Eg5 protein was added resulting in a final concentration of 50 uM. The subsequent fluorescent reaction was measured in NUNC black walled 384 well plates at 340 nm using a Wallac plate reader.

In test [2] the target is T2, conventional human kinesin (Homo sapiens, UniProt P33176).
T2 construct: human kinesin (N-terminal 560 amino acids of full length protein followed by 6-His tag at C terminus); made in house; host or cells: E. coli BL21 pLysS (DE3) (the purification section covers Eg5-405 and K560)
T2 sequence (P33176 1-560): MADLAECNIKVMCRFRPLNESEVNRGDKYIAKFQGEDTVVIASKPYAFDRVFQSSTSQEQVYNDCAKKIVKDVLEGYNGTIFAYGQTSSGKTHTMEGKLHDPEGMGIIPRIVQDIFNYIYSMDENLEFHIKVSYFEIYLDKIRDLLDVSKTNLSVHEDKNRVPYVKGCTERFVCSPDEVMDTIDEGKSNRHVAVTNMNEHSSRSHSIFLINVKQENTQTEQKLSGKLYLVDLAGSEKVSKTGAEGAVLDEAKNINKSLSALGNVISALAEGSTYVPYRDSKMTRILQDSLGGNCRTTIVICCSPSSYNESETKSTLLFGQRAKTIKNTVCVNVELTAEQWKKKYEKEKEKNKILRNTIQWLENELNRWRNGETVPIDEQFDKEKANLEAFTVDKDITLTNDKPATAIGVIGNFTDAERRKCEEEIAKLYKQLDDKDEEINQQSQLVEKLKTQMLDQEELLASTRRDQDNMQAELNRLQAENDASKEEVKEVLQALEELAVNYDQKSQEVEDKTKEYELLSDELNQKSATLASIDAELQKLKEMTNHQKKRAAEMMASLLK
The test is described as follows: NADH enzyme coupled ATPase assay with conventional human kinesin (K560). Type of test: biochemical. The note with it: N-terminal 560 amino acids, 6-His tag. The procedure: Since the effect of 22C16 on mono-astral formation in mammalian cells was similar to that of cells treated with monastrol, the ability of 22C16 to inhibit kinesins was examined.
Purification of Eg5-405 and K560 (560 Amino Acid Kinesin Construct):
as §1, §2

Test [3] relates to BS-C-1 cells. Kind of test: Cell assay for formation of mono-astral spindle structures (immunofluorescence, DAPI / anti-alpha-tubulin). Type of test: cell-based, monkey. As to conditions: for IC50: Primates, BSC-1, BS-C-1 cells, direct comparison, unpublished observations of Mayer and Mitchison, read-out: IC50 (median inhibitory concentration), formation of mono-astral structures. The procedure: When the effects of 22C16 and monastrol on microtubule structure were directly compared, it was shown by examining formation of mono-astral structures that 22C16 has an IC50 (median inhibitory concentration) of approximately 2 uM as compared to the IC50 of approximately 20 uM for monastrol (Mayer and Mitchison, unpublished observations). For experimental details on the cell assay to determine mono-astral structures, see Mayer et al. Science 286:971-974, 1999. Images of live BS-C-1 cells were taken as described (Cramer et al. Curr. Opin. Cell. Biol. 67:82, 1994). Briefly, for immunofluorescence, BS-C-1 cells were stained with DAPI (4′,6-diamidino-2-phenylindole; Sigma-Aldrich) to visualize DNA and anti-α-tubulin (DM1 A; Sigma-Aldrich, St. Louis) to visualize spindle structure.

Test [4] addresses T3, full length Xenopus Eg5 (Xenopus laevis, UniProt P28025).
T3 construct: Full length Xenopus Eg5 was expressed in baculovirus according to standard protocols; made in house
T3 sequence (P28025 1-1067): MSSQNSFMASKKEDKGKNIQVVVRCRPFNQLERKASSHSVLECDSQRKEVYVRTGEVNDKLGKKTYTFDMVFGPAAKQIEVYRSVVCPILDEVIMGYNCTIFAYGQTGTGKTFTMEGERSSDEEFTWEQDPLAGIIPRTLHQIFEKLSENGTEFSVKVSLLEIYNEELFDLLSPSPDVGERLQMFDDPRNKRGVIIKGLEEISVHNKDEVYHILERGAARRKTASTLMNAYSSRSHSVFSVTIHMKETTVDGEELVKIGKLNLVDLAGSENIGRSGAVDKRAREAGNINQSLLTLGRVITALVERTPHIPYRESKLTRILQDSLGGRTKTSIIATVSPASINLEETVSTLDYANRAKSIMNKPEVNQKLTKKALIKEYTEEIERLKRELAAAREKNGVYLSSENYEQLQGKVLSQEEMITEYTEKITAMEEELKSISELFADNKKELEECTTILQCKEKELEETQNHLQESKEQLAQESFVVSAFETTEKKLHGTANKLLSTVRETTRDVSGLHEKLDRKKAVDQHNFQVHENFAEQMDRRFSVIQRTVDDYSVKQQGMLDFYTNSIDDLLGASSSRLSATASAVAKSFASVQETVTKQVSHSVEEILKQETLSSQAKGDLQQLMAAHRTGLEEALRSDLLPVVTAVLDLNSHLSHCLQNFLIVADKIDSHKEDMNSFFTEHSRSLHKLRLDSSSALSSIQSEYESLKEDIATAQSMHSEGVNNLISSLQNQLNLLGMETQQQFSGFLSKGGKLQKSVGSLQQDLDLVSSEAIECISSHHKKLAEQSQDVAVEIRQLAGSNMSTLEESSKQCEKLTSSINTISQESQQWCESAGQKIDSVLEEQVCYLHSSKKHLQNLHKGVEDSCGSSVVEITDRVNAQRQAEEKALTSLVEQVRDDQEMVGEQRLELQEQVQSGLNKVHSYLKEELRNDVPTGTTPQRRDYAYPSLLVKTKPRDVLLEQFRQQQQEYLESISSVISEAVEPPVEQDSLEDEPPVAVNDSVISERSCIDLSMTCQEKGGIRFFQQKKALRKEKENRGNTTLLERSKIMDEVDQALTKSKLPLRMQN
Kind of test: Microtubule motility driven by full length Xenopus Eg5, with washout. Type of test: biochemical. The note with it: full length Xenopus Eg5, washout experiment. How it is done: FIG. 2 depicts the results of experiments examining the motility activity of full length Xenopus Eg5 with and without the beta-carboline, 22C16.
In addition, the ability of 22C16 to inhibit microtubule motility driven by Eg5 was examined. For experimental protocols and details, see Mayer et al. Science 286:971-974, 1999. […] For the washout, Eg5-driven microtubule motility in the presence of 22C16 was measured. The assay chamber was then depleted of 22C16 and motility was immediately measured again. Therefore, the results of the experiment depicted in FIG. 2 provide direct evidence that 22C16 inhibits the microtubule motility driven by Eg5.

Test [5] relates to BSC1 cells. Type of test: cell-based, monkey.

Take `CCCCN1C(=O)C2Cc3c([nH]c4ccccc34)C(c3cccc(O)c3)N2C1=O` (stereo not drawn) [trans isomer of monastroline]: the “IC50 lower than monastrol (fold), ATPase assay of Example 2” value in test [1] (optically purified trans stereoisomer versus monastrol) is recorded as “approximately 8 times”.

On to `CCCCN1C(=O)C2Cc3c([nH]c4ccccc34)C(c3cccc(O)c3)N2C1=O` (stereo not drawn) [22C16], for which the results for the IC50 in test [1] and in test [3] were 1.1 µM and around 2 µM, respectively. Moreover, the “inhibition of ATPase activity of human Eg5 (in words)” value in test [1] (Eg5 N-terminal 405 amino acids, 6-His tagged) is recorded as “block the ATPase activity; also recorded: capable of inhibiting the ATPase activity; also recorded: inhibits the ability of Eg5”. Besides, the “potency relative to monastrol in inhibition of ATPase activity of human kinesin Eg5” value in test [1] (ratio of IC50 values) was “approximately 5 times”. Further, the “inhibition of ATPase activity of conventional human kinesin (in words)” value in test [2] is recorded as “but not conventional human kinesin”. The “spindle phenotype in mitotic cells (in words)” value in test [3] (mitotic mammalian (BSC1) cells) is listed as “caused the formation of monopolar spindles; also recorded: formation of mono-astral spindles; also recorded: capable of arresting cells in mitosis; also recorded: form a mono-astral microtubule array surrounded by a ring of chromosomes”. Further, the “inhibition of microtubule motility driven by Eg5 (in words)” value in test [4] is recorded as “acts reversibly to inhibit the motility of Eg5; also recorded: reversibly inhibits microtubule motility”. In addition, in test [5], the “effect on Golgi (in words)” value is recorded as “fragmented the Golgi; also recorded: fragmentation of the Golgi”. Further, the “effect on interphase microtubules (in words)” value in test [5] is listed as “did not depolymerize interphase microtubules; also recorded: without affecting interphase microtubules”.

As for `CCOC(=O)C1=C(C)NC(=S)NC1c1cccc(O)c1` (stereo not drawn) [monastrol, reference compound], the IC50 in test [1] (purified recombinant human Eg5, microtubules, 1 mM Mg-ATP, read-out: IC50, inhibition of Eg5 ATPase activity) is 5.3 µM; in test [3], around 20 µM.
